Measured values taken from PMC8762250, “Identification of Novel Chemical Scaffolds that Inhibit the Growth of Mycobacterium tuberculosis in Macrophages” (Frontiers in Pharmacology, 2022).
“And” between values parts separate entries of the source, which are not always exact repeats. Identical values can stand only once. Like-named read-outs stand apart in the source and are kept apart here. Marks after values point to notes of the source that are not given here.

Columns and labels:
[1] = system: M. tuberculosis; test: High content assay of intracellular M. tuberculosis growth in infected RAW264.7 macrophages; type: cell-based, Mycobacterium tuberculosis H37Rv-LP; conditions: Mycobacterium tuberculosis, RAW264.7, 72 h, M. tuberculosis in RAW264.7 cells, MOI 1, 72 h; read-out: Intracellular activity Anti-tubercular activity IC50
Method: Compounds were obtained in 384-well plates as 10 mM DMSO stock solutions and tested as described ([Manning et al., 2017]). Briefly, assay plates were prepared in clear bottom, black 384-well plates with 30 μl cRPMI and 0.6 μl compound in columns 3–22 (final concentration of 10 μM compound, 1% DMSO). […] INH and STA were also included in dose response on each plate. RAW264.7 cells were infected with M. tuberculosis DREAM8 as described ([Manning et al., 2017]) at an MOI of 1 for 24 h and extracellular bacteria removed by washing. Cells were recovered using Accumax, harvested, washed and resuspended in serum-free RPMI; 30 μl of infected cells were dispensed into each well at 3,300 cells/well. Plates were incubated for 72 h, 10 μl of 5X SYBR Green I was added and plates were imaged with an ImageXpress Micro High Content Screening System (Molecular Devices) using a ×4 objective and FITC and Texas Red channels. MetaXpress was used to analyze images. The integrated intensity of M. tuberculosis or macrophages was calculated for each well. Growth inhibition was calculated for each test well by normalizing to the average integrated intensity of the DMSO control wells. IC50 was calculated as the compound concentration required to reduce bacterial growth by 50%. TC50 was calculated as the compound concentration required to reduce macrophage viability by 50%.

[2] = HepG2 cytotoxicity (CellTiter-Glo, 72 h); type: cell-based, human; conditions: human
Method: (§1) Cytotoxicity against HepG2 cells was measured after 72 h. Cells were seeded in 384-well plates at 1,800 cells per well. Compounds were added as a 10-point three-fold serial dilution after 24 h (final assay concentration of 1% DMSO). CellTiter-Glo® reagent (Promega) was added and relative luminescence units (RLU) measured. Data were normalized to the DMSO controls. Curves were fitted using the Levenberg–Marquardt algorithm; TC50 was calculated as the compound concentration required to reduce cell viability by 50%.
(§2) We further evaluated cytotoxicity using the HepG2 cell line cultured with either glucose or galactose in the medium (Table 2). HepG2 cells cultured with galactose rely on mitochondrial oxidative phosphorylation rather than glycolysis which increases their susceptibility to mitochondrial toxicants allowing us to identify compounds with mitochondrial toxicity ([Kamalian et al., 2015]).

[3] = system: HepG2 cells; test: HepG2 cytotoxicity (CellTiter-Glo, 72 h); type: cell-based, human; conditions: for HepG2 cytotoxicity TC50 Galactose / HepG2 cytotoxicity TC50 Glucose: 72 h
Method: as §1, §2

[4] = system: RAW264.7 cells; test: Macrophage viability in the same high content assay; conditions: infected RAW264.7 macrophages, 72 h
[5] = system: M. tuberculosis; test: Minimum inhibitory concentration in liquid medium (axenic culture); type: cell-based, Mycobacterium tuberculosis; conditions: Mycobacterium tuberculosis, 120 h; for IC50: read-out: Anti-tubercular activity in axenic culture IC50; for IC90: read-out: Anti-tubercular activity in axenic culture IC90

SMILES	IC50 [1]	IC50 at 72 h ([2]; HepG2 cytotoxicity IC50 Galactose)	IC50 at 72 h ([2]; HepG2 cytotoxicity IC50 Glucose)	ratio of TC50glu/TC50gal ([3]; HepG2, glucose vs galactose)	HepG2 cytotoxicity TC50 Galactose ([3]; human)	HepG2 cytotoxicity TC50 Glucose ([3]; human)	Intracellular activity Cytotoxicity TC50 [4]	IC50 ([5]; extracellular, 5 days, OD590)	IC90 ([5]; extracellular, 5 days, OD590)	HepG2 cytotoxicity TC50 Galactose ([3]; galactose medium)	HepG2 cytotoxicity TC50 Glucose ([3]; glucose medium)	IC50 [5]	IC90 [5]
NNC(=O)c1ccncc1 [INH, isoniazid, reference compound]	0.23 ± 0.08 µM	–	–	–	–	–	–	–	–	–	–	–	–
COc1c(Cl)ccc(Cl)c1C(=O)Nc1sc2c(c1C(N)=O)CCCC2 [TPN-0073571]	–	26 ± 5 µM	> 100 µM	~4	26 ± 5.0 ^b µM	>100 ^b µM	15 ± 5 µM and 15 ± 5.0 ^b µM	–	–	–	–	–	–
CCOC(=O)c1sc(NC(=O)Cc2c(F)cccc2Cl)nc1C [TPN-0089695]	4.7 ± 1.2 µM	–	–	–	>100 ^e µM	>100 ^d µM	45 ± 17 ^b µM	19 µM	> 20 µM	–	–	–	–
Cn1nc(C2CC2)cc1C(=O)Nc1ccc(I)cc1 [TPN-0089788]	2.5 ± 0.57 µM	–	–	–	30 ± 12 ^e µM	52 ± 18 ^e µM	>100e µM	> 20 µM	> 20 µM	–	–	–	–
Clc1ccc(Nc2nc(-c3cccs3)cs2)cc1 [TPN-0095025]	4.4 ± 1.7 µM	–	–	–	28 ± 1.5 ^b µM	35 ± 1.0 ^a µM	26 ± 7.1 ^c µM	> 20 µM	> 20 µM	–	–	–	–
Clc1ccc(C2C=C(c3ccc(Br)cc3)Nc3ncnn32)cc1 (centres unmarked) [TPN-0095026]	–	–	–	–	18 ± 5 ^b µM	19 ± 3.5 ^b µM	19 ± 12 ^b µM	19 ± 1 µM	> 20 µM	–	–	–	–
COc1ccc(CNC(=O)c2c(C)nc3ccccn23)cc1 [TPN-0095027]	0.1 ± 0.01 µM	–	–	–	22 ± 2.2 ^c µM	76 ± 12 ^c µM	72 ± 16 ^d µM	0.17 ± 0.02 µM	0.6 ± 0.2 µM	–	–	–	–
Cc1ccc(Nc2nc(C(N)=O)c(N)s2)cc1 [TPN-0095028]	4.4 ± 1.3 µM	–	–	–	62 ± 6.2 ^c µM	54 ± 9.4 ^c µM	54 ± 20 ^b µM	> 20 µM	> 20 µM	–	–	–	–
COc1ccc(C2Oc3ccc(Cl)cc3C3=C2C(c2ccc(OC)cc2)n2ncnc2N3)cc1 (centres unmarked) [TPN-0095029]	> 50 µM	–	–	–	>50 ^b µM	>50 ^b µM	>50 ^b µM	> 10 µM	> 10 µM	–	–	–	–
Clc1c(-c2ccccc2)nc2ccccn12 [TPN-0095030]	6.9 ± 1.9 µM	–	–	–	>100 ^b µM	>100 ^b µM	>100 ^b µM	> 20 µM	> 20 µM	–	–	–	–
COc1ccc(OCCNC(=O)c2cc([N+](=O)[O-])cc([N+](=O)[O-])c2)cc1 [TPN-0095031]	0.036 ± 0.007 µM	–	–	–	–	–	40 ± 25 ^e µM	–	–	52 ± 0.47 ^c µM	57 ± 6.2 ^c µM	0.2 ± 0.07 µM	0.4 ± 0.14 µM
Cc1ccc(Nc2nc(-c3ccc(Cl)cc3)cs2)cc1Cl [TPN-0095032]	3.5 ± 0.83 µM	–	–	–	19 ± 0.5 ^b µM	23 ± 1.5 ^b µM	9.9 ± 0.98 ^c µM	> 20 µM	> 20 µM	–	–	–	–
O=c1c(/C=N/Cc2cccnc2)c(NCc2cccnc2)nc2ccccn12 [TPN-0095033]	3.4 ± 2.6 µM	–	–	–	>100 ^c µM	>100 ^c µM	>100 ^c µM	> 20 µM	> 20 µM	–	–	–	–
O=C(c1ccc(Cl)c(Cl)c1)N1CCN(c2ccc([N+](=O)[O-])c3cccnc23)CC1 [TPN-0095034]	8.4 ± 2.3 µM	–	–	–	>100 ^c µM	>100 ^c µM	>100 ^d µM	> 20 µM	> 20 µM	–	–	–	–
O=C(c1c(F)cccc1F)N1CCN(c2cc(N3CCCCCC3)c(F)cc2[N+](=O)[O-])CC1 [TPN-0095035]	1 ± 0.02 µM	–	–	–	21 ± 2.0 ^b µM	27 ± 0 ^b µM	>50 ^c µM	9.6 ± 0.1 µM	> 10 µM	–	–	–	–
O=C(CN(C1=NCCCS1)c1ccccc1)c1ccc(Cl)c(Cl)c1 [TPN-0095036]	3.5 ± 0.97 µM	–	–	–	20 ± 0.47 ^c µM	21 ± 3.4 ^c µM	27 ± 2.8 ^c µM	> 20 µM	> 20 µM	–	–	–	–
Cc1ccc(NC(=O)CCN2CCN(c3ccc(Cl)cc3)CC2)cc1 [TPN-0095037]	2 ± 0.53 µM	–	–	–	56 ± 4 ^b µM	84 ± 2.5 ^b µM	54 ± 26 ^c µM	> 20 µM	> 20 µM	–	–	–	–
Brc1c(-c2ccccc2)nc2ccccn12 [TPN-0095038]	2.5 µM	–	–	–	>100 ^c µM	>100 ^b µM	72 ± 15 ^b µM	9.2 ± 1 µM	> 20 µM	–	–	–	–
Fc1ccc(C2CC(c3ccc(Cl)cc3Cl)n3ncnc3N2)cc1 (centres unmarked) [TPN-0095039]	2.1 ± 0.74 µM	–	–	–	30 ± 3.2 ^d µM	29 ± 7.7 ^e µM	24 ± 6.1 ^c µM	14 ± 2.1 µM	18 ± 1.4 µM	–	–	–	–
CCOC(=O)c1nnn(-c2nc(N3CCCC3)nc(N3CCCC3)n2)c1-c1ccccc1 [TPN-0095040]	–	–	–	–	>50 ^c µM	>50 ^c µM	31 ± 18 ^b µM	> 10 µM	> 10 µM	–	–	–	–
COc1ccc(C(=O)c2sc(NCc3ccccc3)nc2N)cc1 [TPN-0095041]	3.6 ± 0.5 µM	–	–	–	24 ± 0.5 ^b µM	52 ± 5.5 ^b µM	13 ± 5.5 ^c µM	14 ± 1 µM	> 20 µM	–	–	–	–
O=C(CN1CCC(Cc2ccccc2)CC1)Nc1ccc(Cl)cn1 [TPN-0095042]	3.7 ± 0.62 µM	–	–	–	19 ± 1.0 ^b µM	26 ± 3.0 ^b µM	21 ± 9.3 ^c µM	> 10 µM	> 10 µM	–	–	–	–
